Source: patent US9376429B2, “Sodium channel blockers, preparation method thereof and use thereof” (Daewoong Pharmaceutical Co., Ltd., priority 2012, dated 2016)

Biological target: T1, sodium ion channel (Nav1.7) (Homo sapiens, UniProt Q15858)
T1 construct: host or cells: HEK293
Experiment: Blocking effect against sodium ion channel (Nav1.7), IonFlux16 auto patch clamp, hNav1.7 HEK293 cells
Assay type: cell-based
Details: peak current after 50 seconds treatment, eight concentrations
Procedure: In order to measure the activities of the inventive compounds as antagonists, an experiment on a blocking effect against the sodium ion channel (Nav1.7) was carried out as follows.
The hNav1.7 HEK293 cell line used was a cell line having a human sodium ion channel 1.7 gene (type IX voltage-gated sodium channel alpha subunit) in human embryonic kidney (HEK) 293 cells and was purchased from Millipore. The medium used was prepared by adding 1% 100×NEAA and 10% heat inactivated FBS to DMEM F-12 and adding 1% P/S as an antibiotic thereto. G-418 as a […] was added during subculture, and the hNav1.7 HEK293 cells were cultured to a confluence of about 80% in a T75 flask in a 5% CO2 incubator at 37° C. for 2 or 3 days and detached from the flask by treatment with 0.25% trypsin solution. Then, the cells were collected by centrifugation and used in the experiment.
The compounds prepared in the Examples of the present invention were dissolved in dimethyl sulfoxide (DMSO) and used in the experiment. 90 mM and 10 mM DMSO stock solutions were prepared from each of the compounds and diluted in an extracellular solution (4 mM KCl, 138 mM NaCl, 1 mM MgCl2, 1.8 mM CaCl2, 5.6 mM glucose, 10 mM HEPES, pH 7.45) at various concentrations so that the final concentration of each compound in DMSO was 0.3% or less.
To measure the sodium ion channel blocking effect, an IonFlux16 Auto patch clamp system (Fluxion, Inc.) and a plate for exclusive use were used. The cells were distributed in an extracellular solution (4 mM KCl, 138 mM NaCl, 1 mM MgCl2, 1.8 mM CaCl2, 5.6 mM glucose, 10 mM HEPES, pH 7.45), and then dispensed in the specified region of the plate, and each of the prepared compound samples was diluted at various concentrations, and then dispensed in the specified region of the plate.
Specifically, eight concentrations per compound were set, and percent inhibition was determined by calculating the percentage of inhibition of the peak current, generated after treating the cells with each concentration of the compound for 50 seconds, relative to the peak current generated before treatment with the compound, and the IC50 value was calculated using the Sigma plot program. In Table 2 below, the percent inhibition of Nav1.7 is rated as follows: […]

T1 sequence (Q15858 whole entry): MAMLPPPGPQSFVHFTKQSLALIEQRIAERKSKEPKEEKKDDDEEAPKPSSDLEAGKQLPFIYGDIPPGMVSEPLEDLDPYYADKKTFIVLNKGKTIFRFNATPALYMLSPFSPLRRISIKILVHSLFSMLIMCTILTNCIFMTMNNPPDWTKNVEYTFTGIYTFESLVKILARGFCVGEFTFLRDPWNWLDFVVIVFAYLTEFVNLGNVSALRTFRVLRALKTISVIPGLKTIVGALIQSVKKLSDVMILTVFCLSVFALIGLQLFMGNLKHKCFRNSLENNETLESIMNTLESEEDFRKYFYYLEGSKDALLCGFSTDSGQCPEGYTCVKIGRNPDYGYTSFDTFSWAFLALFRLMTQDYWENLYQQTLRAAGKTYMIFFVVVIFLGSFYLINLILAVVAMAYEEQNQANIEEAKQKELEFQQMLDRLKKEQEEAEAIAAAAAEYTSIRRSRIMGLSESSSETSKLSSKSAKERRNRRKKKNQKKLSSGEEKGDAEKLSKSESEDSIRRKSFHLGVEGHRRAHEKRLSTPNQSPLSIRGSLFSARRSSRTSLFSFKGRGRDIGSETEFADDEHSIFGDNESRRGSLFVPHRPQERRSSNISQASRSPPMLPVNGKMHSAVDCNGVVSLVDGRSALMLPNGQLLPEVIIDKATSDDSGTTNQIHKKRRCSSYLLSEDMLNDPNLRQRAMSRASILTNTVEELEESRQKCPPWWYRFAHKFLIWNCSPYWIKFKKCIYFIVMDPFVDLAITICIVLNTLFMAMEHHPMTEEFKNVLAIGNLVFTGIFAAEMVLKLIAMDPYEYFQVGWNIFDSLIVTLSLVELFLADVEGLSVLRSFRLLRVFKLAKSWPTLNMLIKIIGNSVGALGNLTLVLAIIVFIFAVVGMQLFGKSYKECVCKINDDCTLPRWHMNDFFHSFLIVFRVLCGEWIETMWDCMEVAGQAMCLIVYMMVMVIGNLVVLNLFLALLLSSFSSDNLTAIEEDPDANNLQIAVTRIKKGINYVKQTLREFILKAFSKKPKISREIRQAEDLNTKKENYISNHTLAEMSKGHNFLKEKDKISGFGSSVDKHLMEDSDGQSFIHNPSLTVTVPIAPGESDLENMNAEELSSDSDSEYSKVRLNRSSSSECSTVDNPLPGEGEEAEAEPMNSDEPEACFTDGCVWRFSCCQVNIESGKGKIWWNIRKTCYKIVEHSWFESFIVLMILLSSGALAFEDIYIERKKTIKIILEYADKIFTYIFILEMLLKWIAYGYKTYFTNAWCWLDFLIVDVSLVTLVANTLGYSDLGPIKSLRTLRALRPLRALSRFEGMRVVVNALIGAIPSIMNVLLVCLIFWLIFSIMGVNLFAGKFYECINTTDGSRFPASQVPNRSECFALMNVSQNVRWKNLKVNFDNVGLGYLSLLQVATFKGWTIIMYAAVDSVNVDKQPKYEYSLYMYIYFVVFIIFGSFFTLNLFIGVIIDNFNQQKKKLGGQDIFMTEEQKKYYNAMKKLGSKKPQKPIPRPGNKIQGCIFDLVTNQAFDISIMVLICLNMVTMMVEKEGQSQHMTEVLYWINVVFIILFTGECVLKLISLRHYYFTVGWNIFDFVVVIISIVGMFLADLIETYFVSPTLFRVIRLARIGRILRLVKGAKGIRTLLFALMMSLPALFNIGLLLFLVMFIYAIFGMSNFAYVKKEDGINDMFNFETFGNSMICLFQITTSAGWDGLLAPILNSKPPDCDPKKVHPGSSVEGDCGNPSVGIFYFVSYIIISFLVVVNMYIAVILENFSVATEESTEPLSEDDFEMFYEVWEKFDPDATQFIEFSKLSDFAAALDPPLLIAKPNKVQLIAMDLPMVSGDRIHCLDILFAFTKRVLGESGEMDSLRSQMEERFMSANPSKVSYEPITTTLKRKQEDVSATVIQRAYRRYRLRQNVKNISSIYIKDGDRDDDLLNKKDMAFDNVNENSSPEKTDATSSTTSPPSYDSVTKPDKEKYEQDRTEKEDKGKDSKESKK

Row | Structure (SMILES) | IC50 [nM]
1 | Cc1cc(-c2cc(-c3ccccc3)ncc2Oc2ccc(S(=O)(=O)Nc3nccs3)cc2C#N)c(C)s1 [Example 41, 3-cyano-4-((4-(2,5-dimethylthiophen-3-yl)-6-phenylpyridin-3-yl)oxy)-N-(thiazol-2-yl)benzenesulfonamide] | > 100
2 | Cc1ccc(-c2cc(-c3ccccc3)ncc2Oc2ccc(S(=O)(=O)Nc3nccs3)cc2C#N)s1 [Example 42, 3-cyano-4-((4-(5-methylthiophen-2-yl)-6-phenylpyridin-3-yl)oxy)-N-(thiazol-2-yl)benzenesulfonamide] | > 100
3 | N#Cc1cc(S(=O)(=O)Nc2nccs2)ccc1Oc1cnc(-c2ccccc2)cc1-c1csc(C2CC2)n1 [Example 43, 3-cyano-4-((4-(2-cyclopropylthiazol-4-yl)-6-phenylpyridin-3-yl)oxy)-N-(thiazol-2-yl)benzenesulfonamide] | > 100
4 | N#Cc1cc(S(=O)(=O)Nc2nccs2)ccc1Oc1cnc(-c2ccccc2)cc1-c1cnn(C2CC2)c1 [Example 44, 3-cyano-4-((4-(1-cyclopropyl-1H-pyrazol-4-yl)-6-phenylpyridin-3-yl)oxy)-N-(thiazol-2-yl)benzenesulfonamide] | > 100
5 | N#Cc1cc(S(=O)(=O)Nc2nccs2)ccc1Oc1cnc(-c2cn[nH]c2)cc1-c1ccoc1 [Example 45, 3-cyano-4-((4-(furan-3-yl)-6-(1H-pyrazol-4-yl)pyridin-3-yl)oxy)-N-(thiazol-2-yl)benzenesulfonamide] | > 100
6 | Cn1cc(-c2cc(-c3ccoc3)c(Oc3ccc(S(=O)(=O)Nc4nccs4)cc3C#N)cn2)cn1 [Example 46, 3-cyano-4-((4-(furan-3-yl)-6-(1-methyl-1H-pyrazol-4-yl)pyridin-3-yl)oxy)-N-(thiazol-2-yl)benzenesulfonamide] | > 100
7 | O=S(=O)(Nc1nccs1)c1ccc(Oc2cnc(-c3cccnc3F)cc2-c2ccoc2)c(F)c1 [Example 47, 3-fluoro-4-((2′-fluoro-4-(furan-3-yl)-[2,3′-bipyridin]-5-yl)oxy)-N-(thiazol-2-yl)benzenesulfonamide] | > 100
8 | O=S(=O)(Nc1nccs1)c1ccc(Oc2cnc(-c3ccc(F)nc3)cc2-c2ccoc2)c(F)c1 [Example 48, 3-fluoro-4-((6′-fluoro-4-(furan-3-yl)-[2,3′-bipyridin]-5-yl)oxy)-N-(thiazol-2-yl)benzenesulfonamide] | > 100
9 | N#Cc1cc(S(=O)(=O)Nc2nccs2)ccc1Oc1cnc(-c2ccc(F)nc2)cc1-c1cccnc1 [Example 49, 3-cyano-4-((6-fluoro-[3,2′:4′,3″-terpyridin]-5′-yl)oxy)-N-(thiazol-2-yl)benzenesulfonamide] | > 100
10 | N#Cc1cc(S(=O)(=O)Nc2nccs2)ccc1Oc1cnc(-c2cccc(F)c2)cc1-c1cccnc1 [Example 50, 3-cyano-4-((6′-(3-fluorophenyl)-[3,4′-bipyridin]-3′-yl)oxy)-N-(thiazol-2-yl)benzenesulfonamide] | < 50
11 | N#Cc1cc(S(=O)(=O)Nc2nccs2)ccc1Oc1cnc(-c2cccnc2F)cc1-c1cccnc1 [Example 51, 3-cyano-4-((2-fluoro-[3,2′:4′,3″-terpyridin]-5′-yl)oxy)-N-(thiazol-2-yl)benzenesulfonamide] | > 100
12 | N#Cc1cc(S(=O)(=O)Nc2nccs2)ccc1Oc1cnc(-c2ccccc2F)cc1-c1cccnc1 [Example 52, 3-cyano-4-((6′-(2-fluorophenyl)-[3,4′-bipyridin]-3′-yl)oxy)-N-(thiazol-2-yl)benzenesulfonamide] | > 100
13 | N#Cc1cc(S(=O)(=O)Nc2nccs2)ccc1Oc1cnc(-c2ccc(F)nc2F)cc1-c1ccncc1 [Example 53, 3-cyano-4-((2,6-difluoro-[3,2′:4′,4″-terpyridin]-5′-yl)oxy)-N-(thiazol-2-yl)benzenesulfonamide] | > 100
14 | Cn1cc(-c2cc(-c3cnn(C)c3)c(Oc3ccc(S(=O)(=O)Nc4nccs4)cc3C#N)cn2)cn1 [Example 54, 4-((4,6-bis(1-methyl-1H-pyrazol-4-yl)pyridin-3-yl)oxy)-3-cyano-N-(thiazol-2-yl)benzenesulfonamide] | > 100
15 | Cn1cc(-c2cc(-c3cnn(C)c3)c(Oc3ccc(S(=O)(=O)Nc4ncns4)cc3C#N)cn2)cn1 [Example 55, 4-((4,6-bis(1-methyl-1H-pyrazol-4-yl)pyridin-3-yl)oxy)-3-cyano-N-(1,2,4-thiadiazol-5-yl)benzenesulfonamide] | > 100
16 | O=S(=O)(Nc1cscn1)c1cc(Cl)c(Oc2cnc(-c3cccnc3F)cc2-c2ccoc2)cc1F [Example 56, 5-chloro-2-fluoro-4-((2′-fluoro-4-(furan-3-yl)-[2,3′-bipyridin]-5-yl)oxy)-N-(thiazol-4-yl)benzenesulfonamide] | > 100
17 | O=S(=O)(Nc1cscn1)c1cc(Cl)c(Oc2cnc(-c3ccc(F)nc3)cc2-c2ccoc2)cc1F [Example 57, 5-chloro-2-fluoro-4-((6′-fluoro-4-(furan-3-yl)-[2,3′-bipyridin]-5-yl)oxy)-N-(thiazol-4-yl)benzenesulfonamide] | > 100
18 | O=S(=O)(Nc1cscn1)c1cc(Cl)c(Oc2cnc(-c3ccc(F)nc3F)cc2-c2ccoc2)cc1F [Example 58, 5-chloro-4-((2′,6′-difluoro-4-(furan-3-yl)-[2,3′-bipyridin]-5-yl)oxy)-2-fluoro-N-(thiazol-4-yl)benzenesulfonamide] | > 100
19 | O=S(=O)(Nc1cscn1)c1cc(Cl)c(Oc2cnc(-c3cccc(F)c3)cc2-c2ccoc2)cc1F [Example 59, 5-chloro-2-fluoro-4-((6-(3-fluorophenyl)-4-(furan-3-yl)pyridin-3-yl)oxy)-N-(thiazol-4-yl)benzenesulfonamide] | > 100
20 | O=S(=O)(Nc1cscn1)c1cc(Cl)c(Oc2cnc(-c3ccccc3F)cc2-c2ccoc2)cc1F [Example 60, 5-chloro-2-fluoro-4-((6-(2-fluorophenyl)-4-(furan-3-yl)pyridin-3-yl)oxy)-N-(thiazol-4-yl)benzenesulfonamide] | > 100
21 | O=S(=O)(Nc1cscn1)c1cc(Cl)c(Oc2cnc(-c3ccc(F)cc3)cc2-c2ccoc2)cc1F [Example 61, 5-chloro-2-fluoro-4-((6-(4-fluorophenyl)-4-(furan-3-yl)pyridin-3-yl)oxy)-N-(thiazol-4-yl)benzenesulfonamide] | > 100
22 | O=S(=O)(Nc1cscn1)c1cc(Cl)c(Oc2cnc(-c3ccnc(F)c3)cc2-c2ccoc2)cc1F [Example 62, 5-chloro-2-fluoro-4-((2′-fluoro-4-(furan-3-yl)-[2,4′-bipyridin]-5-yl)oxy)-N-(thiazol-4-yl)benzenesulfonamide] | > 100
23 | Cn1cc(-c2cc(-c3ccccc3F)ncc2Oc2cc(F)c(S(=O)(=O)Nc3cscn3)cc2Cl)cn1 [Example 63, 5-chloro-2-fluoro-4-((6-(2-fluorophenyl)-4-(1-methyl-1H-pyrazol-4-yl)pyridin-3-yl)oxy)-N-(thiazol-4-yl)benzenesulfonamide 2,2,2-trifluoroacetate] | > 100
24 | Cn1cc(-c2cc(-c3ccc(F)cc3)ncc2Oc2cc(F)c(S(=O)(=O)Nc3cscn3)cc2Cl)cn1 [Example 65, 5-chloro-2-fluoro-4-((6-(4-fluorophenyl)-4-(1-methyl-1H-pyrazol-4-yl)pyridin-3-yl)oxy)-N-(thiazol-4-yl)benzenesulfonamide 2,2,2-trifluoroacetate] | > 100
25 | Cn1cc(-c2cc(-c3ccc(F)cc3F)ncc2Oc2cc(F)c(S(=O)(=O)Nc3cscn3)cc2Cl)cn1 [Example 66, 5-chloro-4-((6-(2,4-difluorophenyl)-4-(1-methyl-1H-pyrazol-4-yl)pyridin-3-yl)oxy)-2-fluoro-N-(thiazol-4-yl)benzenesulfonamide 2,2,2-trifluoroacetate] | > 100
26 | Cn1cc(-c2cc(-c3ccc(F)c(F)c3)ncc2Oc2cc(F)c(S(=O)(=O)Nc3cscn3)cc2Cl)cn1 [Example 67, 5-chloro-4-((6-(3,4-difluorophenyl)-4-(1-methyl-1H-pyrazol-4-yl)pyridin-3-yl)oxy)-2-fluoro-N-(thiazol-4-yl)benzenesulfonamide 2,2,2-trifluoroacetate] | > 100
27 | Cn1cc(-c2cc(-c3ccnc(F)c3)ncc2Oc2cc(F)c(S(=O)(=O)Nc3cscn3)cc2Cl)cn1 [Example 68, 5-chloro-2-fluoro-4-((2′-fluoro-4-(1-methyl-1H-pyrazol-4-yl)-[2,4′-bipyridin]-5-yl)oxy)-N-(thiazol-4-yl)benzenesulfonamide 2,2,2-trifluoroacetate] | > 100
28 | Cn1cc(-c2cc(-c3cccnc3F)ncc2Oc2cc(F)c(S(=O)(=O)Nc3cscn3)cc2Cl)cn1 [Example 69, 5-chloro-2-fluoro-4-((2′-fluoro-4-(1-methyl-1H-pyrazol-4-yl)-[2,3′-bipyridin]-5-yl)oxy)-N-(thiazol-4-yl)benzenesulfonamide 2,2,2-trifluoroacetate] | > 100
